The values that follow come from ChEMBL document CHEMBL5260799, “Pterocarpan scaffold: A natural lead molecule with diverse pharmacological properties” (Eur J Med Chem, 2017).

In brackets after ≈: the same amount, converted by molar mass.

Series [1] is described as follows: Antioxidant activity assessed as DPPH radical scavenging activity incubated for 20 mins by spectrometry method. The series is classed as functional. For orientation: The DPPH test is a chemical assay of radical scavenging.
The test system of series [2] is HL-60. In words: Antiproliferative activity against human HL-60 cells assessed as reduction in cell viability at 2.5 ug/ml by tryphan blue staining assay. Format: functional. The note with it: dose 2.5 µg/ml.
Series [3] relates to MCF7. The series can be described thus: Antiproliferative activity against human MCF7 cells assessed as growth inhibition measured after 48 hrs by CellTiter-Blue assay. The settings on record: MCF7, 48 h. Format: functional, cell-based. In general terms: Alamar Blue is a resazurin reagent that responds to reducing activity.
Series [4] relates to HL-60. In words: Antiproliferative activity against human HL-60 cells assessed as reduction in cell viability at 1.25 ug/ml by tryphan blue staining assay. The settings on record: dose 1.25 µg/ml. The series is classed as functional.
A short description of series [5]: Antiproliferative activity against human PBMC cells assessed as reduction in cell viability at 10 microg/ml measured after 72 hrs by MTT assay. The series is classed as toxicity, cell-based. The note with it: at 10 µg/mL. (Tetrazolium assays rely on reduction of a dye to a coloured formazan, in cell work by metabolically active cells.)
In series [6] the test system is MOLT-4. In words: Antiproliferative activity against human MOLT-4 cells assessed as reduction in cell proliferation measured after 24 hrs by MTT assay. The note with it: MOLT-4, 24 h. Format: functional, cell-based.
The subject of series [7] is Jurkat. The series can be described thus: Antiproliferative activity against human Jurkat cells assessed as reduction in cell proliferation measured after 24 hrs by MTT assay. Format: functional, cell-based.
For series [8], the system named is HL-60. The series can be described thus: Antiproliferative activity against human HL-60 cells assessed as reduction in cell proliferation measured after 36 hrs by MTT assay. The note with it: HL-60, 36 h. Format: functional, cell-based.
The test system of series [9] is K562. The series can be described thus: Antiproliferative activity against human K562 cells assessed as reduction in cell proliferation measured after 36 hrs by MTT assay. Format: functional, cell-based. The note with it: K562, 36 h.
Series [10] concerns Candida albicans. The series can be described thus: Antifungal activity against multidrug-resistant Candida albicans ATCC 10231 assessed as reduction in fungal growth by NCCLS method. The series is classed as functional.
Series [11] relates to Plasmodium falciparum. In words: Antiplasmodial activity against Plasmodium falciparum W2 assessed as reduction in plasmodial growth after 48 hrs by fluorescence based analysis. The note with it: W2, 48 h. Format: functional, organism-based.
The test system of series [12] is Staphylococcus aureus. The series can be described thus: Antibacterial activity against Staphylococcus aureus ATCC 25923 assessed as bacterial growth inhibition by broth dilution method. Format: functional, organism-based.
Series [13] concerns Candida albicans. In words: Antifungal activity against Candida albicans ATCC 10231 assessed as reduction in fungal growth by NCCLS method. The series is classed as functional.
The subject of series [14] is Staphylococcus aureus. In words: Antibacterial activity against methicillin-resistant Staphylococcus aureus ATCC 25923 assessed as bacterial growth inhibition by broth dilution method. The series is classed as functional, organism-based.
Series [15] relates to Staphylococcus aureus. In words: Antibacterial activity against methicillin-resistant Staphylococcus aureus ATCC 4330 assessed as bacterial growth inhibition. Format: functional.
Series [16] has as its system Candida albicans. The series can be described thus: Antifungal activity against Candida albicans SC5314 assessed as reduction in fungal growth incubated for 24 hrs by serial dilution method. The series is classed as functional.
Series [17] deals with J774.A1. In words: Anti-inflammatory activity against mouse J774.A 1 macrophage assessed as reduction in LPS-induced TNFalpha expression by RT-PCR analysis. The series is classed as functional. The arrangement: scale not given: the % may be the effect or the level left.
The subject of series [18] is J774.A1. The series can be described thus: Anti-inflammatory activity against mouse J774.A 1 macrophage assessed as reduction in LPS-induced IL-6 expression by RT-PCR analysis. Set-up: scale not given: the % may be the effect or the level left. The series is classed as functional.
The subject of series [19] is A549. In words: Cytotoxicity against human A549 cells assessed as reduction in cell viability by SRB assay. The series is classed as functional, cell-based.
Series [20] has as its system Enterococcus. The series can be described thus: Antibacterial activity against vancomycin-resistant Enterococcus GCMT1 assessed as reduction in bacterial growth incubated for 24 hrs by microbroth dilution method. Format: functional.
Series [21] has as its system Enterococcus. The series can be described thus: Antibacterial activity against vancomycin-resistant Enterococcus GCMT3 assessed as reduction in bacterial growth incubated for 24 hrs by microbroth dilution method. The series is classed as functional.
For series [22], the system named is KB. In words: Cytotoxicity against human KB cells assessed as reduction in cell viability by colorimetric assay. The series is classed as functional, cell-based.
Series [23] relates to NCI-H187. In words: Cytotoxicity against human NCI-H187 cells assessed as reduction in cell viability by colorimetric assay. Format: functional, cell-based.
For series [24], the system named is Plasmodium falciparum. The series can be described thus: Antiplasmodial activity against Plasmodium falciparum K1 assessed as reduction in parasite growth by fluorescence based assay. Format: functional, organism-based.
The test system of series [25] is Breast carcinoma cell. The series can be described thus: Cytotoxicity against human Breast carcinoma cell assessed as reduction in cell viability by colorimetric assay. Format: functional, cell-based.
In series [26] the test system is Mycobacterium tuberculosis. In words: Antimycobacterial activity against Mycobacterium tuberculosis H37Rv assessed as inhibition of bacterial growth by Microplate alamar blue assay. Format: functional, organism-based.
The subject of series [27] is Streptococcus agalactiae. The series can be described thus: Antibacterial activity against Streptococcus agalactiae ATCC 12386 assessed as reduction in bacterial growth by microbroth dilution method. Format: functional.
For series [28], the system named is HeLa. The series can be described thus: Cytotoxicity against human HeLa cells assessed as reduction in cell viability by MTT assay. Format: functional, cell-based.
Series [29] has as its system MDA-MB-231. The series can be described thus: Cytotoxicity against human MDA-MB-231 assessed as reduction in cell viability by MTT assay. The series is classed as functional, cell-based.
Series [30] deals with MCF7. The series can be described thus: Cytotoxicity against human MCF7 cells assessed as reduction in cell viability by resazurin microplate assay. Format: functional, cell-based.
The subject of series [31] is KB. The series can be described thus: Cytotoxicity against human KB cells assessed as reduction in cell viability by resazurin microplate assay. The series is classed as functional, cell-based.
The test system of series [32] is NCI-H187. In words: Cytotoxicity against human NCI-H187 cells assessed as reduction in cell viability by resazurin microplate assay. Format: functional, cell-based.
Series [33] is described as follows: Antiinflammatory activity against mouse primary bone marrow derived macrophages assessed as inhibition of COX-2 at 100 ug/ml. Format: functional, BMDM. Set-up: scale not given: the % may be the effect or the level left. The settings on record: dose 100 µg/ml.
For series [34], the target named is Prostaglandin G/H synthase 1 (Homo sapiens, UniProt P23219). The series can be described thus: Inhibition of COX-1 (unknown origin).
Series [35] addresses Maltase-glucoamylase (Homo sapiens, UniProt O43451). The series can be described thus: Inhibition of human Alpha-glucosidase.
Series [36] deals with Sterol O-acyltransferase 2 (Homo sapiens) (UniProt O75908). In words: Inhibition of human ACAT2 at 100 uM.
Series [37] has as its target Sterol O-acyltransferase 1 (Homo sapiens) (UniProt P35610). In words: Inhibition of human ACAT1 at 100 uM.
A short description of series [38]: Cytotoxicity against mouse RAW264.7 cells assessed as increase in NO production measured after 48 hrs by MTT assay. Format: toxicity, cell-based.
Series [39] in a line: Cytotoxicity against mouse N9 cells assessed as reduction in cell viability incubated for 48 hrs by MTT assay. Format: toxicity, cell-based.
Series [40] deals with Plasmodium falciparum. In words: Antiplasmodial activity against Plasmodium falciparum K1 assessed as reduction in parasitic growth by fluorescence based analysis. Format: functional, organism-based.
Series [41] relates to Mycobacterium tuberculosis. In words: Antimycobacterial activity against Mycobacterium tuberculosis H37Ra assessed as reduction in bacterial growth by MABA method. Format: functional.

Sequence of Sterol O-acyltransferase 1 (Homo sapiens) (P35610 whole entry, looked up): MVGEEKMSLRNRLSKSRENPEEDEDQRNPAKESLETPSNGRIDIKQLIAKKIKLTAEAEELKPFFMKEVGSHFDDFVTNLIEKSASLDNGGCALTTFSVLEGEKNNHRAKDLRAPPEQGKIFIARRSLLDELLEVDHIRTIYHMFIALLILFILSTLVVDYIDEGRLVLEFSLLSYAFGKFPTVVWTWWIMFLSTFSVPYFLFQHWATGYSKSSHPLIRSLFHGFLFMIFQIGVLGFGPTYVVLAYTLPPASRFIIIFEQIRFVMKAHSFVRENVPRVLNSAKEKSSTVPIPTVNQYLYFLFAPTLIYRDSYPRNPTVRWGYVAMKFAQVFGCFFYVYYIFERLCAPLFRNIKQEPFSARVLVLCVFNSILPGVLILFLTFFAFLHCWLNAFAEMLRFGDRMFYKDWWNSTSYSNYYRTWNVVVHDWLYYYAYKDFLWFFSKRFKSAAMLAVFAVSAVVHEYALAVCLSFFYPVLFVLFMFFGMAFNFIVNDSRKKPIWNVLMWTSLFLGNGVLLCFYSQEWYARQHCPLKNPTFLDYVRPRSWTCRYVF
Sequence of Prostaglandin G/H synthase 1 (P23219 whole entry): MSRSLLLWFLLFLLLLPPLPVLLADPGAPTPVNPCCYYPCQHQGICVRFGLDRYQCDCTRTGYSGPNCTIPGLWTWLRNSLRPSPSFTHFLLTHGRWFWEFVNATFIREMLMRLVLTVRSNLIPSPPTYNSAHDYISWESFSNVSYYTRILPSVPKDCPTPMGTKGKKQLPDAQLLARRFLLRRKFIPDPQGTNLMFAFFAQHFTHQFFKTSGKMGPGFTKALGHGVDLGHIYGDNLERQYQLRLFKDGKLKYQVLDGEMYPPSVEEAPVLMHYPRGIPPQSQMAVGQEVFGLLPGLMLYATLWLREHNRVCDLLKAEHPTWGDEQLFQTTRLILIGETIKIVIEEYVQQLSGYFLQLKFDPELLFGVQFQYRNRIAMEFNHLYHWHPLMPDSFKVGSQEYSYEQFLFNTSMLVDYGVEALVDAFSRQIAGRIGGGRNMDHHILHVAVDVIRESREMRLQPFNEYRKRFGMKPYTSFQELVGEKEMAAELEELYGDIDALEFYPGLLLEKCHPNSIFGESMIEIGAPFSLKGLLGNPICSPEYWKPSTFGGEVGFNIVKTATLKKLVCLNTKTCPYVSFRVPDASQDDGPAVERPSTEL
Sequence of Sterol O-acyltransferase 2 (Homo sapiens) (O75908 whole entry): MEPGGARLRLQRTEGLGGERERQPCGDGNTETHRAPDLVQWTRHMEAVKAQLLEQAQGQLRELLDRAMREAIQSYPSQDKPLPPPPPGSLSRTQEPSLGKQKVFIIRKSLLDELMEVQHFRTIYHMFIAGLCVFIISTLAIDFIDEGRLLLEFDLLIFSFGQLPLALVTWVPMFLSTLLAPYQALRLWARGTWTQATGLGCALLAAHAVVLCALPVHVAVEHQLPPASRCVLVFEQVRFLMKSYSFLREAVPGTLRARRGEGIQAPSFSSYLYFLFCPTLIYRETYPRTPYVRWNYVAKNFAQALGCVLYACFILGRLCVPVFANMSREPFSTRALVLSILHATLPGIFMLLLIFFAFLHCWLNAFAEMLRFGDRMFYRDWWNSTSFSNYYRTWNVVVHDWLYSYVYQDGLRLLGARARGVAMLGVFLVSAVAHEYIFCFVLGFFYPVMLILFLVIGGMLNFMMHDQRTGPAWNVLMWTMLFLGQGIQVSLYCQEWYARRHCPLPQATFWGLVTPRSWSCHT
Sequence of Maltase-glucoamylase (O43451 whole entry): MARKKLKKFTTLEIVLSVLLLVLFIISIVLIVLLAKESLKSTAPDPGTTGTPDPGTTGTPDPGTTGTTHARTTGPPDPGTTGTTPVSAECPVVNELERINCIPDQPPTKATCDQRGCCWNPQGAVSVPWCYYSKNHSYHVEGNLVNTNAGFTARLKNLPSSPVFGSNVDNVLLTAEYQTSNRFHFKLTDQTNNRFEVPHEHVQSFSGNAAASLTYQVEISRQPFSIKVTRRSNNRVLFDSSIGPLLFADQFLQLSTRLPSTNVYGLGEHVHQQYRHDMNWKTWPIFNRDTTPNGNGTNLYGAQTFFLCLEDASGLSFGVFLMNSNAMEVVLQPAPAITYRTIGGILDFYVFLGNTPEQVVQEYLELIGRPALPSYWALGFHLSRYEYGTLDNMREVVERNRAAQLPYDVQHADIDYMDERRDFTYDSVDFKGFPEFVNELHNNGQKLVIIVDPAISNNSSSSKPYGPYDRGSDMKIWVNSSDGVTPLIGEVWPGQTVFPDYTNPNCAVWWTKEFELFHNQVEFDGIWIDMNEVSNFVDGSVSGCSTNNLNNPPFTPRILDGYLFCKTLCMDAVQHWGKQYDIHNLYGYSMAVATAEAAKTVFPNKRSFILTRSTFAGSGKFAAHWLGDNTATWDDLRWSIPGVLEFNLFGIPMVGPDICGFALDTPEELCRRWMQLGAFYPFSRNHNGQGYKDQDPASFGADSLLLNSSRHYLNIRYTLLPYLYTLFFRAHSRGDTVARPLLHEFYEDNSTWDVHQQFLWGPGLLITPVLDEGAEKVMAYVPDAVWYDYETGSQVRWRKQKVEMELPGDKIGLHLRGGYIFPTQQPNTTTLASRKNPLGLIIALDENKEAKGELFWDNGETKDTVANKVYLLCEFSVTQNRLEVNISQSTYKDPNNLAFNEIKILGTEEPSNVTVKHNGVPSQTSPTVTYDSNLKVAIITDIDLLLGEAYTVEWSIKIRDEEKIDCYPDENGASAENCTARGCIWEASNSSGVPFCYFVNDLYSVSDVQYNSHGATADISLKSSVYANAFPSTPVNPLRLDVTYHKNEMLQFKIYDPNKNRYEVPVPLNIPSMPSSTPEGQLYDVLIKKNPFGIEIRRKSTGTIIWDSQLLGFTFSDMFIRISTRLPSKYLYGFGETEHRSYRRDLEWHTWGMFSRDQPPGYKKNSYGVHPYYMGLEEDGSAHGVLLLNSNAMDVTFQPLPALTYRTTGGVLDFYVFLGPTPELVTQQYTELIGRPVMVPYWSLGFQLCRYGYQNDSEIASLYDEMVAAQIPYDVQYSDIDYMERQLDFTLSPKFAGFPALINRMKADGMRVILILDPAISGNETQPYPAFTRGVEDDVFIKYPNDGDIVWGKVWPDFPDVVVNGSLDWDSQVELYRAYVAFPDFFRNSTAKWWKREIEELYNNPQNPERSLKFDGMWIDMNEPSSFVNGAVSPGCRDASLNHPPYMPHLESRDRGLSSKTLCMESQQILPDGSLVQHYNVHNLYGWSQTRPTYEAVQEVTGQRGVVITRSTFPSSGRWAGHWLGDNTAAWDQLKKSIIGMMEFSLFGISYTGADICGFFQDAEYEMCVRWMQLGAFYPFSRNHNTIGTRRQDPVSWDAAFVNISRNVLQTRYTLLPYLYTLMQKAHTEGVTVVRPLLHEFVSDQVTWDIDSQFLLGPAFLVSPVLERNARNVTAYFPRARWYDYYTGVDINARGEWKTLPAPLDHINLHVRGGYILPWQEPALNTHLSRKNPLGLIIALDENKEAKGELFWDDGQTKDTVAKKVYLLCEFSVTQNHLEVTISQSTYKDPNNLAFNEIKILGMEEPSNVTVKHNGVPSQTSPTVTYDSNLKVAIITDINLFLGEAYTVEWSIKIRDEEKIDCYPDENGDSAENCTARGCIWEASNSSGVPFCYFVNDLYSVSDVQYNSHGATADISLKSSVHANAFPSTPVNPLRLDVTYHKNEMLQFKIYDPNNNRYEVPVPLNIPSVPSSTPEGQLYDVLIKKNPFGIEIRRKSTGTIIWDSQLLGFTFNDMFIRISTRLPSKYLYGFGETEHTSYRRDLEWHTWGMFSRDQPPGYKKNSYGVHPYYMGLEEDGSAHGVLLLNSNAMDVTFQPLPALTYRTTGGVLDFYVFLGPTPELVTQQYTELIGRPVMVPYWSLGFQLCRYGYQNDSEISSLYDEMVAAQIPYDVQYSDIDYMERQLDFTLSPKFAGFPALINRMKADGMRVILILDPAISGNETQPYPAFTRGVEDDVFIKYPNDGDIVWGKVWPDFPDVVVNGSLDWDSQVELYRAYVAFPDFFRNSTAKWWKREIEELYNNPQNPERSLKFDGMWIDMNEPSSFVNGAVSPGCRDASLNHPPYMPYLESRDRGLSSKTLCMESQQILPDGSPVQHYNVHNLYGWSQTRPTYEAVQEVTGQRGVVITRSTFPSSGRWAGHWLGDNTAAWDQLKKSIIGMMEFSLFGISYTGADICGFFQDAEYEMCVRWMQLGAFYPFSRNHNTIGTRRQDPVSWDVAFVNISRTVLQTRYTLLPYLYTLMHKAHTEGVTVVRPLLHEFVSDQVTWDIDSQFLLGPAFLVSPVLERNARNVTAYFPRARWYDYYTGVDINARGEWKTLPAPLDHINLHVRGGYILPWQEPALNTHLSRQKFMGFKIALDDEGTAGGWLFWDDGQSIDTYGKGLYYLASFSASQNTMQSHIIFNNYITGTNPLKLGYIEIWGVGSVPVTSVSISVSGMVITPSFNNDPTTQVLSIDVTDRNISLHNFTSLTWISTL

Take `COc1c(O)cc2c(c1OC)O[C@H]1c3ccc(O)cc3OC[C@@H]21`: the IC50 (in general, the concentration at which inhibition is half-maximal) in series [1] was found to be 3.8 µM.
For `COc1ccc2c(c1)O[C@@H]1c3cc(OC)c(OC)cc3OC[C@H]21`, the Activity in series [2] is 42.6%; in series [4], 34.4%. The IC50 in series [3] was 8 µM; in series [6], 45.9 µg/mL (≈ 146 µM); in series [7] it was above 10 µg/mL; in series [8] it was 2.5 µg/mL (≈ 7.95 µM); in series [9], 2.8 µg/mL (≈ 8.91 µM). The inhibition (in general, the drop in the measured response relative to a control, in per cent) at 72 h, 10 microg/ml in series [5] was 19%.
With `COc1ccc2c(c1CC=C(C)C)O[C@H]1c3ccc(O)cc3OCC21` (some centres not stated), the MIC (usually the lowest concentration found to suppress growth) worked out at 1.9 µg/mL (≈ 5.61 µM) in series [10] and 3.8 µg/mL (≈ 11.2 µM) in series [13]. The IC50 was 1.83 µg/mL (≈ 5.41 µM) in series [11], 8 µg/mL (≈ 23.6 µM) in series [12] and 16 µg/mL (≈ 47.3 µM) in series [14].
`COc1ccc2c(c1CC=C(C)C)O[C@H]1c3ccc(O)c(CC=C(C)C)c3OC[C@@]21O`: the MIC50 (commonly an inhibitory concentration at the 50% level, which refers to growth in some studies and to a panel of isolates in others) in series [15] amounted to 6.25 µM (≈ 2.64 µg/mL).
Turning to `Oc1cc2c(cc1O)[C@@H]1Oc3cc4c(cc3[C@@H]1CO2)OCO4`, the minimal inhibitory concentration (MIC) in [16] was 32 µg/mL (≈ 107 µM).
In the case of `OC[C@H]1O[C@H](Oc2ccc3c(c2)OCC2c4cc5c(cc4OC32)OCO5)[C@H](O)[C@@H](O)[C@@H]1O` (some centres not stated), the Activity in series [17] and in series [18] was 25% throughout.
With `CC1(C)Oc2cc3c(cc2CC1O)[C@@H]1Oc2cc(O)ccc2[C@@H]1CO3` (some centres not stated) [RAUTANDIOL A], the IC50 in series [19] was above 5 µg/mL.
Take `CC(C)=CCc1c(O)ccc2c1O[C@H]1c3ccc(O)c(CC=C(C)C)c3OC[C@@H]21` [ERYBRAEDIN A]: the MIC in series [20] was 1.56 µg/mL (≈ 3.97 µM); in series [21], 3.13 µg/mL (≈ 7.97 µM); in series [27], 0.78 µg/mL (≈ 1.99 µM). In addition, the IC50 stood at 5.1 µg/mL (≈ 13 µM) in series [22]; 2.1 µg/mL (≈ 5.35 µM) in [23]; 3.4 µg/mL (≈ 8.66 µM) in series [24]; 2.9 µg/mL (≈ 7.39 µM) in series [25]; 25 µg/mL (≈ 63.7 µM) in series [26].
On to `O=c1cccc2n1C[C@@H]1C[C@H]2CN(Cc2c(O)ccc3c2OC[C@H]2c4cc5c(cc4O[C@@H]32)OCO5)C1`, for which the values for the IC50 in [28] and in [29] were 24.3 µM and 48.9 µM, respectively.
On to `COc1ccc2c(c1CC=C(C)C)OC1c3ccc(O)cc3OCC21` (configuration not stated), for which the IC50 came to 7.51 µg/mL (≈ 22.2 µM) in [30]; 12.5 µg/mL (≈ 37 µM) in series [31]; 5.37 µg/mL (≈ 15.9 µM) in series [32]; 4 µg/mL (≈ 11.8 µM) in series [12]; 4 µg/mL (≈ 11.8 µM) in series [14].
In the case of `COc1ccc2c(c1O)OC1c3ccc(O)c(OC)c3OCC21` (configuration not stated), the Activity in series [33] was determined as 52.5%. The IC50 in [34] was determined as 30.5 µM.
In series [35], `CC1(C)C=Cc2c(ccc3c2OC2c4ccc(O)cc4OCC32)O1` (configuration not stated) displayed an IC50 of 6 µM. Also, the results for the inhibition in [36] and in series [37] were 67.4% and 85.9%, respectively.
For `C=C(C)/C(C)=C/c1c(O)ccc2c1O[C@H]1c3ccc(O)cc3OC[C@@H]21`, the values for the IC50 at 48 h in series [38] and in [39] were 23 µM and 9.4 µM, respectively.
Take `CC(C)=CCc1c(O)ccc2c1O[C@H]1c3ccc(O)cc3OC[C@@H]21` [PHASEOLLIDIN]: the IC50 was 1.66 µg/mL (≈ 5.12 µM) in series [11]; 9.09 µg/mL (≈ 28 µM) in series [40]; 7.7 µg/mL (≈ 23.7 µM) in [22]; 5.05 µg/mL (≈ 15.6 µM) in [23]; 14.3 µg/mL (≈ 44.1 µM) in series [25].
On to `COc1c(CC=C(C)C)c(O)cc2c1[C@@H]1Oc3c(ccc(O)c3CC=C(C)C)[C@@H]1CO2`, for which the MIC in [41] was 50 µg/mL (≈ 118 µM).
